This note sets out measurements from patent US6562872B1, “Emulsion of perfluoroorganic compounds for medical purposes, a process for the preparation thereof and methods for treating and preventing diseases with the use thereof” (Otkrytoe Aktsionernoe Obschestvo Naucho-Proizvodstven-Naya …, priority 2001, dated 2003).

Molecules are shown by their SMILES. In brackets after ≈: the same amount, converted by molar mass.

Series [1] in a line: Solubility of PFOCs in olive oil lipids. It is filed as physicochemical. As to conditions: oil or lipid, 37° C.
Series [2] can be described thus: Solubility of PFOCs in membranes of erythrocytes. The format is physicochemical. As to conditions: 37° C.

With `FC1(F)C(F)(F)C(F)(F)C2(F)C(F)(F)C(F)(F)C(F)(F)C(F)(F)C2(F)C1(F)F` (centres unmarked) [Perfluorodecalin (PFD), perfluorodecalin], in series [1], the solubility (usually how much of the substance goes into solution per volume) was found to be 26 mM (≈ 12000 µg/mL). Further, in series [2], the Solubility in membranes is reported as 2.0 ml per kg of dry membranes.

In series [1], `FC(F)(F)C(F)(F)C(F)(F)C(F)(F)N(C(F)(F)C(F)(F)C(F)(F)C(F)(F)F)C(F)(F)C(F)(F)C(F)(F)C(F)(F)F` [Perfluorotributylamine] registered a solubility of 1.2 mM (≈ 805 µg/mL). Further, the Solubility in membranes in series [2] was 0.08 ml per kg of dry membranes.

`FC(F)(F)C1(F)C(F)(F)C(F)(F)C(F)(N2C(F)(F)C(F)(F)C(F)(F)C(F)(F)C2(F)F)C(F)(F)C1(F)F` (centres unmarked) [perfluoro-N-(4-methylcyclohexyl)-piperidine] gave a solubility in series [1] of 7.6 mM (≈ 4520 µg/mL). The Solubility in membranes in series [2] was 0.5 ml per kg of dry membranes.

As to `FC(F)(F)C(F)(F)C(F)(F)N(C(F)(F)C(F)(F)C(F)(F)F)C(F)(F)C(F)(F)C(F)(F)F` [Perfluorotripropylamine], the solubility in series [1] turned out to be 5.1 mM (≈ 2660 µg/mL). Further, in series [2], the Solubility in membranes is on record as 0.3 ml per kg of dry membranes.
